Assay: Solubility test of PAPAP derivatives in cyclohexanone with thermal stirring
Format: physicochemical
Conditions: 10 mg compound in 1 mL cyclohexanone, thermal stirring at about 100° C.
Experimental: Solubility tests were performed on PAPAP-1 and PAPAP-0 obtained from the Synthetic Example using cyclohexanone as a solvent. 10 mg of each of PAPAP-1 and PAPAP-0 was measured, 1 mL of cyclohexanone was added thereto, and thermal stirring was performed at a temperature of about 100° C.
The solubilities of PAPAP-12 and PAPAP-1 were tested using cyclohexanone as a solvent. 10 mg of each of PAPAP-12 and PAPAP-1 was measured, 1 mL of cyclohexanone was added thereto, and thermal stirring was performed at a temperature of about 100° C.

SMILES | solubility in cyclohexanone
c1ccc(-c2ccccc2-c2c3ccccc3c(-c3ccc(-c4c5ccccc5c(-c5cccc(N(c6ccccc6)c6ccccc6)c5)c5ccccc45)cc3)c3ccccc23)cc1 [PAPAP-12] | soluble
c1ccc(-c2ccccc2-c2c3ccccc3c(-c3ccc(-c4c5ccccc5c(-c5ccc(N(c6ccccc6)c6ccccc6)cc5)c5ccccc45)cc3)c3ccccc23)cc1 [PAPAP-1] | soluble
COc1ccc(-c2c3ccccc3c(-c3ccc(-c4c5ccccc5c(-c5ccc(C#N)cc5)c5ccccc45)cc3)c3ccccc23)cc1 [PAPAP-0, reference compound] | insoluble

Source: patent US12545650B2, “Bisanthracene derivatives having solubilizing substituent, and organic electroluminescence device using same” (LG Chem, Ltd., priority 2020, dated 2026)
